Experimental data reported in patent US20250230147A1, “LACTAMS AS CBL-B INHIBITORS” (Genentech, Inc., priority 2021, published 2025).
Counter-ions that a name gives are not always drawn.

Experiments:
Cbl-b = Cbl-b (Homo sapiens (Human), UniProt Q13191); test: Cbl-b LCK Ub TR-FRET assay (Cbl-b Lck HTRF); type: biochemical
Summary of the method: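 Biotin-Cbl-b preincubated with compound (10-point 3-fold series) 60 min, then His-LCK with 1 mM ATP (2× mixture) added for 90 min at room temperature. Ubiquitination detected by TR-FRET using HA-ubiquitin/UBE2D2 adduct, anti-HA-D2 and streptavidin-Eu; IC50 normalised to no-LCK and DMSO controls.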

c-Cbl = c-Cbl (Homo sapiens (Human), UniProt P22681); test: C-Cbl LCK Ub TR-FRET assay (c-cbl Lck HTRF); type: biochemical; conditions: for (fold-selectivity): C-cbl Lck HTRF IC50 relative to Cbl-b Lck HTRF IC50
Summary of the method: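 Signal is read once the detection mix has stood 20 min at ambient temperature. Curves are anchored by DMSO as maximum and by omission of LCK as minimum.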

Cbl-b, sequence (Q13191 40-426): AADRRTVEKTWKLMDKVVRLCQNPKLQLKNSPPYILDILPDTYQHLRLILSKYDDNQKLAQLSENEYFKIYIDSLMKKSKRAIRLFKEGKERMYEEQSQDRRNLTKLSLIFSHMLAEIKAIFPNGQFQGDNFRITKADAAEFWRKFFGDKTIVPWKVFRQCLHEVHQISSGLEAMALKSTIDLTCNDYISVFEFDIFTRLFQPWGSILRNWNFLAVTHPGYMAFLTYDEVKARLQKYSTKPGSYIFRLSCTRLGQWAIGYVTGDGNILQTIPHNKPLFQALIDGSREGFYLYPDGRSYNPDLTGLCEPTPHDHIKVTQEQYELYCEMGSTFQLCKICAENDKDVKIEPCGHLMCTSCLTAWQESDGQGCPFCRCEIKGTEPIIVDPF
c-Cbl, sequence (P22681 47-435): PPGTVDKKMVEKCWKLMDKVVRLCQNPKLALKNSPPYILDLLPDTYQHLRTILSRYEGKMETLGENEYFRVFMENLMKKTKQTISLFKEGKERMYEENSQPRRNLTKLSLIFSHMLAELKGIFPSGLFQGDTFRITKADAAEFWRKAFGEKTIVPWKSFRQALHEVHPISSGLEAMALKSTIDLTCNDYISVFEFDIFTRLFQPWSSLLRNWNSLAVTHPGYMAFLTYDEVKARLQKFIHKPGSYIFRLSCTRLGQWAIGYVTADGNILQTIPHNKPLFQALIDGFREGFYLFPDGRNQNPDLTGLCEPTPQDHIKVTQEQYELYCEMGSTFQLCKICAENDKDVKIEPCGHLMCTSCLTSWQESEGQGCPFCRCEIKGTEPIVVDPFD

IC50 (Cbl-b) | IC50 (c-Cbl) | (fold-selectivity) (c-Cbl) | Structure (SMILES)
15 nM | 21 nM | (1.4x) | Cn1cnnc1C(F)(F)C1(c2cccc(N3Cc4c(cc(CNC5(C)CCC5)cc4C(F)(F)F)C3=O)c2)CCC1 [Compound 235, 2-(3-(1-(difluoro(4-methyl-4H-1,2,4-triazol-3-yl)methyl)cyclobutyl)phenyl)-6-(((1-methylcyclobutyl)amino)methyl)-4-(trifluoro-methyl)isoindolin-1-one]
190 nM | 380 nM | 1.9x | Cn1cnnc1C[C@]1(c2cccc(N3Cc4c(cccc4C(F)(F)F)C3=O)c2)C[C@H](F)C1 [Compound 100, 2-(3-((1r,3s)-3-fluoro-1-((4-methyl-4H-1,2,4-triazol-3-yl)methyl)cyclobutyl)phenyl)-4-(trifluoromethyl)isoindolin-1-one]
35 nM | 73 nM | 2.1x | Cn1cnnc1[C@H](F)C1(c2cccc(N3Cc4c(cc(CN5CC6(CCC6)C5)cc4C(F)(F)F)C3=O)c2)COC1 [Compound 165, (R)-6-(2-azaspiro[3.3]heptan-2-ylmethyl)-2-(3-(3-(fluoro(4-methyl-4H-1,2,4-triazol-3-yl)methyl)oxetan-3-yl)phenyl)-4-(trifluoromethyl)isoindolin-1-one]
32 nM | 22 nM | (0.68x) | C[C@H]1CN(Cc2cc3c(c(C(F)(F)F)c2)CN(c2cccc(C4(Cc5nncn5C)CC(F)(F)C4)c2)C3=O)CCN1 [Compound 425, (S)-2-(3-(3,3-difluoro-1-((4-methyl-4H-1,2,4-triazol-3-yl)methyl)cyclobutyl)phenyl)-6-((3-methylpiperazin-1-yl)methyl)-4-(trifluoromethyl)isoindolin-1-one]
210 nM | 660 nM | 3.1x | Cn1cnnc1[C@H](F)C1(c2cccc(N3Cc4c(Cl)cccc4C3=O)c2)COC1 [Compound 204, (R)-4-chloro-2-(3-(3-(fluoro(4-methyl-4H-1,2,4-triazol-3-yl)methyl)oxetan-3-yl)phenyl)isoindolin-1-one]
12 nM | 10 nM | (0.83x) | Cn1cnnc1[C@H](F)C1(c2cccc(N3Cc4c(cc(CNC5(C)CC5)cc4C(F)(F)F)C3=O)c2)COC1 [Compound 229, (R)-2-(3-(3-(fluoro(4-methyl-4H-1,2,4-triazol-3-yl)methyl)oxetan-3-yl)phenyl)-6-(((1-methylcyclopropyl)amino)methyl)-4-(trifluoromethyl)isoindolin-1-one]
54 nM | 39 nM | (0.71x) | CC(C)[C@H]1CN(C)CCN1Cc1cc2c(c(C(F)(F)F)c1)CN(c1cccc(C3(Cc4nncn4C)CC(F)(F)C3)c1)C2=O [Compound 240, (S)-2-(3-(3,3-difluoro-1-((4-methyl-4H-1,2,4-triazol-3-yl)methyl)-cyclobutyl)phenyl)-6-((2-isopropyl-4-methylpiperazin-1-yl)methyl)-4-(trifluoromethyl)iso-indolin-1-one]
4500 nM | 13000 nM | 2.8x | CC(C)Oc1cccc2c1CN(c1cccc(C3([C@@H](F)c4nncn4C)COC3)c1)C2=O [Compound 207, (R)-2-(3-(3-(fluoro(4-methyl-4H-1,2,4-triazol-3-yl)methyl)oxetan-3-yl)phenyl)-4-isopropoxyisoindolin-1-one]
23 nM | 23 nM | (1.0x) | Cn1cnnc1[C@@H](F)C1(c2cccc(NC(=O)c3cc(CN4CC(C)(CO)C4)cc(C4CC4)n3)c2)CC(F)(F)C1 [Compound 423, (S)-6-cyclopropyl-N-(3-(3,3-difluoro-1-(fluoro(4-methyl-4H-1,2,4-triazol-3-yl)methyl)cyclobutyl)phenyl)-4-((3-(hydroxymethyl)-3-methylazetidin-1-yl)methyl)picolinamide]
48 nM | 42 nM | (0.87x) | Cn1cnnc1CC1(c2cccc(N3Cc4c(cc(CN5CCN[C@@H](C6CC6)C5)cc4C(F)(F)F)C3=O)c2)CC(F)(F)C1 [Compound 431, (S)-6-((3-cyclopropylpiperazin-1-yl)methyl)-2-(3-(3,3-difluoro-1-((4-methyl-4H-1,2,4-triazol-3-yl)methyl)cyclobutyl)phenyl)-4-(trifluoromethyl)isoindolin-1-one]
270 nM | 750 nM | 2.8x | Cn1cnnc1[C@@H](F)C1(c2cccc(N3Cc4c(cc(CN5CC[C@@H](F)C5)cc4C(F)(F)F)C3=O)c2)COC1 [Compound 81, 2-(3-(3-((S)-fluoro(4-methyl-4H-1,2,4-triazol-3-yl)methyl)oxetan-3-yl)phenyl)-6-(((R)-3-fluoropyrrolidin-1-yl)methyl)-4-(trifluoromethyl)isoindolin-1-one]
15 nM | 14 nM | (0.95x) | Cn1cnnc1[C@@H](F)C1(c2cccc(N3Cc4c(cc(CNCC5CC5)cc4C(F)(F)F)C3=O)c2)CC(F)(F)C1 [Compound 450, (S)-6-(((cyclopropylmethyl)amino)methyl)-2-(3-(3,3-difluoro-1-(fluoro(4-methyl-4H-1,2,4-triazol-3-yl)methyl)cyclobutyl)phenyl)-4-(trifluoromethyl)isoindolin-1-one]
62 nM | 900 nM | (0.97x) | Cn1cnnc1CC1(c2cccc(N3Cc4c(cc(CN5CCNCC5)cc4C(F)(F)F)C3=O)c2)CC(F)(F)C1 [Compound 437, 2-(3-(3,3-difluoro-1-((4-methyl-4H-1,2,4-triazol-3-yl)methyl)cyclobutyl)phenyl)-6-(piperazin-1-ylmethyl)-4-(trifluoromethyl)isoindolin-1-one]
22 nM | 31 nM | (1.4x) | Cc1cnnn1CC1(c2cccc(N3Cc4c(cc(CN5CCN(C)C[C@@H]5C(C)C)cc4C(F)(F)F)C3=O)c2)COC1 [Compound 258, (S)-6-((2-isopropyl-4-methylpiperazin-1-yl)methyl)-2-(3-(3-((5-methyl-1H-1,2,3-triazol-1-yl)methyl)oxetan-3-yl)phenyl)-4-(trifluoromethyl)isoindolin-1-one]
42 nM | 23 nM | (0.56x) | Cn1cnnc1CC1(c2cccc(N3Cc4c(cc(CN5CCC[C@@](C)(O)C5)cc4C(F)(F)F)C3=O)c2)CC(F)(F)C1 [Compound 441, (R)-2-(3-(3,3-difluoro-1-((4-methyl-4H-1,2,4-triazol-3-yl)methyl)cyclobutyl)phenyl)-6-((3-hydroxy-3-methylpiperidin-1-yl)methyl)-4-(trifluoromethyl)isoindolin-1-one]
180 nM | 370 nM | 2.0x | Cn1cnnc1[C@@H](F)C1(c2cccc(N3Cc4c(cc(CN5CC6CC6C5)cc4C(F)(F)F)C3=O)c2)COC1 (stereo partly drawn) [Compound 85, 6-((3-azabicyclo[3.1.0]hexan-3 yl)methyl)-2-(3-(3-((S)-fluoro(4-methyl-4H-1,2,4-triazol-3-yl)methyl)oxetan-3-yl)phenyl)-4-(trifluoromethyl)isoindolin-1-one]
16 nM | 20 nM | (1.2x) | Cn1cnnc1[C@H](F)C1(c2cccc(N3Cc4c(cc(CNCCCF)cc4C(F)(F)F)C3=O)c2)CC(F)(F)C1 [Compound 447, (R)-2-(3-(3,3-difluoro-1-(fluoro(4-methyl-4H-1,2,4-triazol-3-yl)methyl)cyclobutyl)phenyl)-6-(((3-fluoropropyl)amino)methyl)-4-(trifluoromethyl)isoindolin-1-one]
240 nM | 400 nM | 1.7x | Cn1cnnc1[C@@H](F)C1(c2cccc(N3Cc4c(cc(CN5CCC5)cc4C(F)(F)F)C3=O)c2)COC1 [Compound 71, (S)-6-(azetidin-1-ylmethyl)-2-(3-(3-(fluoro(4-methyl-4H-1,2,4-triazol-3-yl)methyl)oxetan-3-yl)phenyl)-4-(trifluoromethyl)isoindolin-1-one]
18 nM | 15 nM | 0.81x | Cn1cnnc1CC1(c2cccc(N3Cc4c(cc(CN5CCC6(CC6)C5)cc4C(F)(F)F)C3=O)c2)CC(F)(F)C1 [Compound 106, 6((5-azaspiro[2.4]heptan-5-yl)methyl)-2-(3-(3,3-difluoro-1-((4-methyl-4H-1,2,4-triazol-3-yl)methyl)cyclobutyl)phenyl)-4-(trifluoromethyl)isoindolin-1-one]
190 nM | 440 nM | 2.3x | Cn1cnnc1[C@@H](F)C1(c2cccc(N3Cc4c(cc(CN5CC(O)(C6CC6)C5)cc4C(F)(F)F)C3=O)c2)COC1 [Compound 174, (S)-6-((3-cyclopropyl-3-hydroxyazetidin-1-yl)methyl)-2-(3-(3-(fluoro(4-methyl-4H-1,2,4-triazol-3-yl)methyl)oxetan-3-yl)phenyl)-4-(trifluoromethyl)isoindolin-1-one]
45 nM | 59 nM | (1.3x) | Cc1ccnn1CC1(c2cccc(N3Cc4c(cc(CN5CCN(C)C[C@@H]5C(C)C)cc4C(F)(F)F)C3=O)c2)COC1 [Compound 263, (S)-6-((2-isopropyl-4-methylpiperazin-1-yl)methyl)-2-(3-(3-((5-methyl-1H-pyrazol-1-yl)methyl)oxetan-3-yl)phenyl)-4-(trifluoromethyl)isoindolin-1-one]

Structure (SMILES) | IC50 (Cbl-b) | IC50 (c-Cbl) | (fold-selectivity) (c-Cbl)
CC(=O)NCCCCNc1cc(C2(Cc3nncn3C)CCC2)cc(N2Cc3c(cc(CNC4(C)CCC4)cc3C(F)(F)F)C2=O)n1 [Compound 314, N-(4-((4-(1-((4-methyl-4H-1,2,4-triazol-3-yl)methyl)cyclobutyl)-6-(6-(((1-methylcyclobutyl)amino)methyl)-1-oxo-4-(trifluoromethyl)isoindolin-2-yl)pyridin-2-yl)amino)butyl)acetamide formate] | 27 nM | 31 nM | –
